The nature of data set [1]: Reversal of BCRP-mediated multidrug resistance in human KBV cells assessed as mitoxantrone IC50 at 10 uM after 72 hrs in presence of mitoxantrone by MTT assay (Rvb = 1186.50 +/- 29.24 nM). For orientation: Formazan colour is commonly taken as a measure of viable cells.
The nature of data set [2]: Reversal of MRP2-mediated multidrug resistance in human KBV cells assessed as cisplatin IC50 at 10 uM after 72 hrs in presence of cisplatin by MTT assay (Rvb = 4902.89 +/- 130.33 nM).
The nature of data set [3]: Reversal of MRP2-mediated multidrug resistance in human KBV cells assessed as cisplatin IC50 at 5 uM after 72 hrs in presence of cisplatin by MTT assay (Rvb = 4902.89 +/- 130.33 nM).
Data set [4] can be described thus: Reversal of BCRP-mediated multidrug resistance in human KBV cells assessed as mitoxantrone IC50 at 5 uM after 72 hrs in presence of mitoxantrone by MTT assay (Rvb = 1186.50 +/- 29.24 nM).

In general, IC50 refers to the point on the concentration scale where inhibition reaches its midpoint.

For the compound `CSCC[C@H](NC(=O)OC(C)(C)C)C(=O)O[C@H]1CC[C@]2(C)[C@H]3C[C@@H](O)[C@@H]4[C@@H]([C@]5(C)CC[C@H](C(C)(C)O)O5)CC[C@@]4(C)[C@]3(C)CC[C@H]2C1(C)C`, the half-inhibitory concentration (IC50) was 748 nM in data set [1], over 5 µM in data set [2], over 5 µM in data set [3] and 843 nM in data set [4].

With `COc1ccc(CCN(C)CCCC(C#N)(c2ccc(OC)c(OC)c2)C(C)C)cc1OC` (centres undefined) [NSC_62969], the IC50 in data set [2] is over 5 µM.

As for `CSCC[C@H](NC(=O)OC(C)(C)C)C(=O)O[C@H]1CC[C@]2(C)[C@H]3C[C@@H](O)[C@@H]4[C@@H]([C@]5(C)CC[C@@H](C(C)(C)O)O5)CC[C@@]4(C)[C@]3(C)CC[C@H]2C1(C)C`, the half-maximal inhibitory concentration (IC50) was 1010 nM in data set [1], over 5 µM in data set [2], over 5 µM in data set [3] and 1460 nM in data set [4].

Values taken from BindingDB's records for doi:10.1016/j.ejmech.2021.113317 (Universities of Shandong, 2021).
